The text below walks through data of ChEMBL document CHEMBL1201862, “PubChem BioAssay data set” (2004).

Holding throughout (assay): growth of human tumour cells (NCI), 48 h
For assay [1], the system named is A498.
Assay [2] has as its system A549.
Assay [3] concerns CAKI-1.
For assay [4], the system named is EKVX.
Assay [5] has as its system HCT-15.
The subject of assay [6] is K562.
Assay [7] has as its system NCI-H23.
Assay [8] relates to OVCAR-5.
The test system of assay [9] is SF-295.
Assay [10] relates to SNB-19.
Assay [11] has as its system SR.
The test system of assay [12] is SW-620.
Assay [13] concerns UACC-257.
Assay [14] relates to COLO 205.
The test system of assay [15] is DU-145.
Assay [16] deals with Hs-578T.
The test system of assay [17] is NCI/ADR-RES.
Assay [18] relates to OVCAR-4.

Molecules are shown by their SMILES.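 96-well plates; 48 h exposure; 5 concentrations. Endpoints by linear interpolation between flanking doses. Not reached: highest tested concentration assigned. GI50: concentration for 50% inhibition of growth.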 Activity calls are given as the source filed them. No stated cut-off is given here; in the data, active = GI50 up to about 1.1 µM and inactive = higher.

Consider `CN(C)c1c([O-])c(=[N+](C)C)c1=O`, for which the GI50 was > 100 µM (inactive) in [1]; > 100 µM (inactive) in [2]; > 100 µM (inactive) in [3]; > 100 µM (inactive) in assay [4]; greater than 100 µM in [5]; > 100 µM (inactive) in [6]. Further, the GI50 in [7], in assay [8], in assay [9], in [10], in [11] and in [12] was > 100 µM (inactive) each time. Moreover, the GI50 in assay [13] was > 100 µM (inactive).
As to `Oc1c(CN2CCOCC2)ccc2cccnc12`, the GI50 was > 10 µM (inactive) in assay [1]; > 10 µM (inactive) in [2]; 5.16 µM (inactive) in assay [3]; > 10 µM (inactive) in assay [14]; > 10 µM (inactive) in assay [15]; > 10 µM (inactive) in [4]. The GI50 in assay [5] is 4.59 µM; in [16] it was > 10 µM (inactive); in assay [6], 4.4 µM (inactive); in assay [7] it was > 10 µM (inactive); in [17], 2.34 µM (inactive); in [18] it was > 10 µM (inactive). In addition, the GI50 in assay [8], in assay [9], in assay [10], in assay [12] and in [13] was > 10 µM (inactive) throughout.
For the compound `Cc1cc(S(=O)(=O)Nc2nc(N)n[nH]2)c(Cl)cc1Cl`, the GI50 in [1], in assay [2], in [3], in assay [14], in assay [15] and in [4] was > 10 µM (inactive) each time. Further, the GI50 is greater than 10 µM in assay [5]; > 10 µM (inactive) in assay [16]; > 10 µM (inactive) in assay [6]; > 10 µM (inactive) in assay [7]; > 10 µM (inactive) in [17]; > 10 µM (inactive) in assay [18]. Also, the GI50 in assay [8], in assay [9], in assay [10], in assay [12] and in [13] was > 10 µM (inactive) each time.
Take `COP(=O)(OC)C(Nc1ccc(Cc2ccc(NC(c3ccco3)P(=O)(OC)OC)cc2)cc1)c1ccco1` (stereo not drawn): the GI50 in assay [1] was 19 µM (inactive); in assay [2], > 100 µM (inactive); in assay [3], 26.3 µM (inactive); in [14], > 100 µM (inactive); in assay [15], > 100 µM (inactive); in [4], 20.9 µM (inactive). In addition, the GI50 is greater than 100 µM in assay [5]; 11.4 µM (inactive) in [16]; > 100 µM (inactive) in [6]; 14 µM (inactive) in assay [7]; > 100 µM (inactive) in assay [17]; > 100 µM (inactive) in [18]. Besides, the GI50 was 46.8 µM (inactive) in assay [8]; 11.5 µM (inactive) in [9]; 11.9 µM (inactive) in assay [10]; > 100 µM (inactive) in assay [12]; > 100 µM (inactive) in assay [13].
Consider `CO/C(N)=C(C#N)/N=C/c1cccnc1`, for which the GI50 was > 100 µM (inactive) in assay [1]; > 100 µM (inactive) in assay [2]; 71.9 µM (inactive) in assay [3]; > 100 µM (inactive) in assay [14]; > 100 µM (inactive) in assay [15]; > 100 µM (inactive) in [4]. The GI50 was greater than 100 µM in assay [5]; > 100 µM (inactive) in assay [6]; > 100 µM (inactive) in assay [7]; > 100 µM (inactive) in assay [17]; > 100 µM (inactive) in [18]; > 100 µM (inactive) in assay [8]. Also, the GI50 in [9], in assay [12] and in assay [13] was > 100 µM (inactive) throughout.
For the compound `COc1ccc(-c2c3c(n(C4OC(COC(C)=O)C(OC(C)=O)C(OC(C)=O)C4OC(C)=O)c(=S)c2C#N)CCCC3)cc1` (stereo not drawn), the GI50 in [1] was 15.2 µM (inactive); in assay [2], 64.1 µM (inactive); in assay [3] it was 20.5 µM (inactive); in assay [14], 69.5 µM (inactive); in assay [15], 44.9 µM (inactive); in assay [4] it was 53 µM (inactive). The GI50 in assay [5] is 41.5 µM; in assay [6], 65.6 µM (inactive); in assay [7] it was 37.9 µM (inactive); in assay [17], 54.1 µM (inactive); in assay [18] it was 25.5 µM (inactive); in [8], > 100 µM (inactive). The GI50 in assay [9] is > 100 µM (inactive); in assay [10], 24.7 µM (inactive); in assay [11], > 100 µM (inactive); in [12], 51.5 µM (inactive); in [13], > 100 µM (inactive).
In the case of `O=C(c1ccco1)N(C(=S)OCCOc1ccccc1)c1ccccc1`, the GI50 in assay [1] was 16 µM (inactive); in assay [2], 30.8 µM (inactive); in assay [3], 18.7 µM (inactive); in assay [14], 21 µM (inactive); in assay [15], 20.3 µM (inactive); in assay [4] it was 22.1 µM (inactive). Also, the GI50 was 22.3 µM in [5]; 32.1 µM (inactive) in [16]; 28.4 µM (inactive) in assay [6]; 21.3 µM (inactive) in assay [7]; 25.7 µM (inactive) in assay [17]; 20 µM (inactive) in assay [18]. For the same compound, the GI50 in assay [8] is 19.2 µM (inactive); in assay [9], 16.2 µM (inactive); in [10], 26.7 µM (inactive); in assay [12], 20.5 µM (inactive); in [13], 17.9 µM (inactive).
Take `NCC(=O)NC(CO)C(=O)O` (stereo not drawn): the GI50 in [1], in [2], in assay [3], in assay [14], in [15] and in assay [4] was > 100 µM (inactive) throughout. Besides, the GI50 in assay [5] was greater than 100 µM; in assay [16] it was > 100 µM (inactive); in [6], > 100 µM (inactive); in assay [7], > 100 µM (inactive); in [17], > 100 µM (inactive); in [18], > 100 µM (inactive). In addition, the GI50 in assay [8], in assay [9], in [10], in assay [12] and in assay [13] was > 100 µM (inactive) in each case.
`Cc1ccc(/C=c2\cc3oc(=O)c4cccc(c4-3)c2=O)cc1`: the GI50 in [1] was > 100 µM (inactive); in assay [3], > 100 µM (inactive); in [14], > 100 µM (inactive); in assay [15] it was > 100 µM (inactive); in assay [4] it was > 100 µM (inactive); in [5] it was greater than 100 µM. The GI50 in assay [6] is 33.3 µM (inactive); in assay [7], > 100 µM (inactive); in assay [17], > 100 µM (inactive); in assay [18], > 100 µM (inactive); in assay [8], > 100 µM (inactive); in [9], > 100 µM (inactive). Besides, the GI50 in assay [10] is > 100 µM (inactive); in [11], 34.1 µM (inactive); in assay [12], > 100 µM (inactive); in assay [13], > 100 µM (inactive).
On to `CN(C)c1ccc(/C=C(\NC(=O)c2ccccc2)C(=O)Nc2ccccc2C(=O)NCc2ccccc2)cc1`, for which the GI50 in assay [1], in assay [2], in assay [3], in assay [14], in [15] and in assay [4] was > 100 µM (inactive) throughout. For the same compound, the GI50 in assay [5] was greater than 100 µM; in [16] it was > 100 µM (inactive); in assay [6], > 100 µM (inactive); in assay [7] it was > 100 µM (inactive); in assay [17], 43.1 µM (inactive); in [18], 58.2 µM (inactive). For the same compound, the GI50 is > 100 µM (inactive) in [8]; > 100 µM (inactive) in [9]; 85.5 µM (inactive) in [10]; > 100 µM (inactive) in assay [12]; 36.1 µM (inactive) in [13].
On to `COc1ccc(NC(=S)C#N)cc1`, for which the GI50 was 51.9 µM (inactive) in assay [1]; > 100 µM (inactive) in [2]; > 100 µM (inactive) in [3]; > 100 µM (inactive) in [14]; > 100 µM (inactive) in assay [15]; greater than 100 µM in [5]. Moreover, the GI50 in assay [6] was 49.3 µM (inactive); in assay [7], > 100 µM (inactive); in assay [17], > 100 µM (inactive); in [8], > 100 µM (inactive); in assay [9] it was > 100 µM (inactive); in [10], > 100 µM (inactive). Also, the GI50 in assay [11], in [12] and in [13] was > 100 µM (inactive) each time.
For `O=C1CSC(c2c[nH]c3ccccc23)N1c1cccc([N+](=O)[O-])c1` (stereo not drawn), the GI50 is > 100 µM (inactive) in [2]; > 100 µM (inactive) in assay [14]; 51.9 µM (inactive) in assay [15]; > 100 µM (inactive) in assay [4]; 42.9 µM in [5]; 76.2 µM (inactive) in assay [6]. The GI50 in [7] is > 100 µM (inactive); in assay [18] it was > 100 µM (inactive); in [8], > 100 µM (inactive); in assay [9], 66.7 µM (inactive); in assay [10] it was > 100 µM (inactive); in assay [11], > 100 µM (inactive). Moreover, the GI50 in [12] and in [13] was > 100 µM (inactive) each time.
Regarding `COC(=O)[C@]1(c2cc3ccccc3n2S(=O)(=O)c2ccccc2)CC2CCC1NC2` (stereo partly drawn), the GI50 is 12.6 µM (inactive) in [2]; 15.5 µM (inactive) in assay [3]; 14.4 µM (inactive) in assay [14]; 16.1 µM (inactive) in [15]; 14.2 µM (inactive) in assay [4]; 15.6 µM in [5]. The GI50 in assay [6] is 10.4 µM (inactive); in assay [7], 15.2 µM (inactive); in assay [17], 16.6 µM (inactive); in [18], 16.4 µM (inactive); in [8], 16.1 µM (inactive); in assay [9], 16.9 µM (inactive). The GI50 was 14.8 µM (inactive) in assay [10], < 0.01 µM (active) in assay [11], 14.5 µM (inactive) in [12] and 15.8 µM (inactive) in assay [13].
